Read-outs that look alike come from different tables or passages of the source.
Key:
[1] = Detection of 13-HODE-G in human samples by LC-MS/MS; details: mean ± SEM, n = 5
[2] = target: human recombinant CB1 receptor (Homo sapiens, UniProt P21554); assay: CB1 receptor binding assay; details: mean ± SD; for CB1 Receptor Max Tested (% Displacement): 10 µM
Experimental: (§1) The analysis of CB1 and CB2 receptor binding was performed exactly as described in [21].

human recombinant TRPV1 = target: T1, human recombinant TRPV1 (Homo sapiens, UniProt Q8NER1); assay: TRPV1-mediated intracellular calcium elevation; type: cell-based; details: mean ± SD; for IC50: assayed using 100 nM capsaicin, read-out: Desensibilization (IC50); for Emax: read-out: Efficacy (% Max Response)
T1 construct: expressed in transfected cells
T1 sequence (Q8NER1 whole entry): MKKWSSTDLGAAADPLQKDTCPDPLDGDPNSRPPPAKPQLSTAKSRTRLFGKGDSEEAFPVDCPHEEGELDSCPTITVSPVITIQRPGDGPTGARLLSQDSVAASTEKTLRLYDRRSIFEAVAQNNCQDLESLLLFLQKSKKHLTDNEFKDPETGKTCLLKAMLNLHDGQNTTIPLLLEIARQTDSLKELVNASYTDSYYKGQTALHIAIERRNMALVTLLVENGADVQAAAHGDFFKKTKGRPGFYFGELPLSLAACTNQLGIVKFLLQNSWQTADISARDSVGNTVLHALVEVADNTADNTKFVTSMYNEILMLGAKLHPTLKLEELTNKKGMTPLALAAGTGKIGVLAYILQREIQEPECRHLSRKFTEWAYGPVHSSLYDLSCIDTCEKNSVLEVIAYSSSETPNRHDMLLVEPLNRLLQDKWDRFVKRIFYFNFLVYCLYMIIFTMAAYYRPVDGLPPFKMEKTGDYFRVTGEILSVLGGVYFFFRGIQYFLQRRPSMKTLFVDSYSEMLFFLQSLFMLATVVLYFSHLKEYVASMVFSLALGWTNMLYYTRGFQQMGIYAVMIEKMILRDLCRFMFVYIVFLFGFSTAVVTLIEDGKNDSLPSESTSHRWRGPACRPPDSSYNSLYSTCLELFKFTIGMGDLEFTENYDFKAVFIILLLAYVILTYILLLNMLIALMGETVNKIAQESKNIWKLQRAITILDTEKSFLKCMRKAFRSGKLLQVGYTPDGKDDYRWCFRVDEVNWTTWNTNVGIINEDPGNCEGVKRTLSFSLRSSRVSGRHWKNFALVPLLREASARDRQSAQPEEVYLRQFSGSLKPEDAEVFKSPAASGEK
Excerpt: (§2) These assays we preformed exactly as described in [21].

human eosinophils [3] = assay: Biosynthesis of 15-LO metabolites by human eosinophils; details: for Times more metabolite in eosinophils than in neutrophils: same donors, combination of LA, 1-LG and LEA at 3 µM each, 5 min; for Delay before metabolism into 15-lipoxygenase counterpart / Time of maximal levels of 15-lipoxygenase metabolite: 3 µM substrate; for Time of maximal levels of 15-lipoxygenase metabolite: longest time point studied
[4] = target: human recombinant CB2 receptor (Homo sapiens, UniProt P34972); assay: CB2 receptor binding assay; details: mean ± SD; for CB2 Receptor Max Tested (% Displacement): 10 µM
human recombinant CB2 receptor, sequence (P34972 whole entry): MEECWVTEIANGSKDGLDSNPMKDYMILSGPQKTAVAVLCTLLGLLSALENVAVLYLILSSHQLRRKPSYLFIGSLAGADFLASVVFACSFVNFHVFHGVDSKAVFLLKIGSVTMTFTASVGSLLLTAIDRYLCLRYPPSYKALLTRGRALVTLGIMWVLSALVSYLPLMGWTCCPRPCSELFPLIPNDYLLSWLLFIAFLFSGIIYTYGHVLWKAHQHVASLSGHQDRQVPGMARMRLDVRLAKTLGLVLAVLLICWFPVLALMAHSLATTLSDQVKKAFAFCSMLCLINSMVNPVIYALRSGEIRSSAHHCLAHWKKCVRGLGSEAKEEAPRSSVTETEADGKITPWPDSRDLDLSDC
Experimental: as §1

PPAR-γ = target: T2, PPAR-γ (Homo sapiens, UniProt P37231); assay: PPAR-γ functional (transcriptional) activity assay kit; type: cell-based; details: 30 µM, overnight
T2 construct: purchased
T2 sequence (P37231 1-505): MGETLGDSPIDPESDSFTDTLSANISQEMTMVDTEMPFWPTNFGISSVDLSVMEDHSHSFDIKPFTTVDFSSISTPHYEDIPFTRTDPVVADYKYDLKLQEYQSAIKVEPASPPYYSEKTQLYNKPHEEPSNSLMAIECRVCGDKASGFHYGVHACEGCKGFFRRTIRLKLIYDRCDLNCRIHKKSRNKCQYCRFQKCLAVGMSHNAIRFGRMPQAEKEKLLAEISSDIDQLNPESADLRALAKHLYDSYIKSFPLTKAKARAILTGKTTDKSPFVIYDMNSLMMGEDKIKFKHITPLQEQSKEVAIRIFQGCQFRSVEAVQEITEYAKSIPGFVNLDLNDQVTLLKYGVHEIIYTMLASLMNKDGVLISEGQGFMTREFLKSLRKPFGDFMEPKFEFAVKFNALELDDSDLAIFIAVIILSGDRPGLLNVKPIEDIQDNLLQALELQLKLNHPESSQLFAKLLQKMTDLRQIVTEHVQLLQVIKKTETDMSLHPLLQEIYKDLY
Experimental: as §2
(§3) Figure 10 Impact of 13-HODE and 13-HODE-G on PPAR activity. Cells were incubated with 30 µM 13-HODE, 13-HODE-G, or OEA overnight and PPAR activity was measured using the PPAR assay kits according to the manufacturers’ instructions. Rosiglitazone (10 µM) and GW 590735 (100 nM) were utilized as positive controls for the (A) PPAR-γ and (B) PPAR-α assays, respectively. Data represent the mean (± SEM) of three (PPAR-γ) or five (PPAR-α) experiments, each performed in triplicates. p values were obtained by performing a 2-way ANOVA with a Sidak multiple comparison tests. **** p < 0.0001, *** p < 0.001. ns: p > 0.05.

PPAR-α = target: T3, PPAR-α (Homo sapiens, UniProt Q07869); assay: PPAR-α functional (transcriptional) activity assay kit; type: cell-based; details: 30 µM, overnight
T3 construct: purchased
T3 sequence (Q07869 1-468): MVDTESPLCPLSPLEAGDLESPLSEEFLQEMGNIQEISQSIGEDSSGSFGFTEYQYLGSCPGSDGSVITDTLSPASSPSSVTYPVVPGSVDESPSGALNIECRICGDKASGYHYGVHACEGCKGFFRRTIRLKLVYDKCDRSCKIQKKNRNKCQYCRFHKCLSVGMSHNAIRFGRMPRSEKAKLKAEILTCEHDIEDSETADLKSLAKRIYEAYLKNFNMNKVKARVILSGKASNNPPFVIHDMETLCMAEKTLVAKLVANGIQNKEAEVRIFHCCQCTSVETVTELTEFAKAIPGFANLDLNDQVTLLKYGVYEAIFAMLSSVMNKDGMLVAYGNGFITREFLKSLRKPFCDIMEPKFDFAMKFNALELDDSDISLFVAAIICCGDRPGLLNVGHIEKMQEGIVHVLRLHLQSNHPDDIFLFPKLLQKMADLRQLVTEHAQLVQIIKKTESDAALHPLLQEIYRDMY
Experimental: as §2, §3

[5] = target: T4, human recombinant 15-LO-1 (Homo sapiens, UniProt P16050); design: method as in PMID 33915294; details: previous publication; cited from earlier work
T4 sequence (P16050 1-662): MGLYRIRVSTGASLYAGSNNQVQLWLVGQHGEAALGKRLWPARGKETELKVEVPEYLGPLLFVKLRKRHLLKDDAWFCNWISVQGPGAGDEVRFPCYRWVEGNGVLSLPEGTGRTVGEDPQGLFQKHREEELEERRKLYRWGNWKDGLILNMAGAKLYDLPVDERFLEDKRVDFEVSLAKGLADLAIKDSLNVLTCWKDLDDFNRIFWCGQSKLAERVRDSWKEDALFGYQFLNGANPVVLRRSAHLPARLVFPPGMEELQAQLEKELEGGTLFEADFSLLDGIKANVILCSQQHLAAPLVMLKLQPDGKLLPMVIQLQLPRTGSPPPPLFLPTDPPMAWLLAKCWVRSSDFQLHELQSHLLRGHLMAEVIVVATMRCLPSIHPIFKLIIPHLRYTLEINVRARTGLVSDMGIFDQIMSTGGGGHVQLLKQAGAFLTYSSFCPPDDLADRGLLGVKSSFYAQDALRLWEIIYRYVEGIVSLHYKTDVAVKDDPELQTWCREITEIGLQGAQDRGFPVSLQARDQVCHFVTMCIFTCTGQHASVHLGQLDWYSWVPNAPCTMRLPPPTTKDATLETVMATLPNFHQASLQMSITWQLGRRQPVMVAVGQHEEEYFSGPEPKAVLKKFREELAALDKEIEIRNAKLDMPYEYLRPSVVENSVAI

human eosinophils [6] = assay: Hydrolysis/stability of added 13-HODE-EA in eosinophil suspensions; type: in vitro ADME; details: eosinophils 10^6 cells/mL
human neutrophils [7] = assay: Hydrolysis/stability of added 13-HODE-EA in neutrophil suspensions; type: in vitro ADME; details: neutrophils 5 × 10^6 cells/mL
[8] = target: T5, human recombinant 15-LO-2 (Homo sapiens, UniProt O15296); design: method as in PMID 33915294; details: previous publication; cited from earlier work
T5 sequence (O15296 1-676): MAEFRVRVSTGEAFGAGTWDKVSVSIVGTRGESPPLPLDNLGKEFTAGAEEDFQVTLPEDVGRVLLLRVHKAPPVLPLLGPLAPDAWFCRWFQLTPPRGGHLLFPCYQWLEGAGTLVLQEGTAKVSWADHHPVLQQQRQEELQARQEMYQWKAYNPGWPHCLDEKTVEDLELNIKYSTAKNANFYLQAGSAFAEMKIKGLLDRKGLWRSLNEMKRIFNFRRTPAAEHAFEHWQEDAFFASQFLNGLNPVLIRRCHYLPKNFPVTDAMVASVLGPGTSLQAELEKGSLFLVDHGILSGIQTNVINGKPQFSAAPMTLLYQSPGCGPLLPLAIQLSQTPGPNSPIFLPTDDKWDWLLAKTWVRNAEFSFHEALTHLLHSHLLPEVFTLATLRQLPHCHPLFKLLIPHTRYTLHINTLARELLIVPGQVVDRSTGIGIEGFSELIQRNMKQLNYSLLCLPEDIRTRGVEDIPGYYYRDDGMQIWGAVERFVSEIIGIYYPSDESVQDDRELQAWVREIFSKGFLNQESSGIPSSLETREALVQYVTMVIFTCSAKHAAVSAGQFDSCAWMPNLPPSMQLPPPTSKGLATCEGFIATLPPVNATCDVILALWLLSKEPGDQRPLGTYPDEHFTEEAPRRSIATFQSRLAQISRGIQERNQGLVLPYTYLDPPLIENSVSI

[9] = target: T4, human recombinant 15-LO-1; assay: Metabolism of substrates by recombinant 15-LO-1, LC-MS/MS; type: biochemical; details: 10 µM 1-LG, 5 min, 37 °C
Experimental: (§4) Recombinant human 15-LO-1 and 15-LO-2 enzymes were added to HEPES 25 mM + 0.01% Triton (14 μg/mL for 15-LO-1, 56 μg/mL for 15-LO-2). A total of 10 μM of the fatty acids were added to the buffer for 5 min (15-LO-1) or 15 min (15-LO-2), at 37 °C. The final volume of the reaction mix was 100 µL. After the incubation, 50 µL of NaBH4 1M was added to the reaction, for 5 min at 37 °C. The reactions were stopped by adding 0.5 mL of cold (−20 °C) methanol +0.01% acetic acid and kept at −30 °C until further processing.
(§5) Figure 3 Metabolism of 1-LG, LA and LEA by human recombinant 15-LO-1 and 15-LO-2. Human recombinant 15-LO-1 (A–D) or 15-LO-2 (E–H) were incubated at 37 °C in HEPES 25 mM containing 0.01% triton. A total of 10 μM of LA (A,D,E,H); 1-LG (B,D,F,H) or LEA (D,H) were added for 5 min (15-LO-1) or 15 min (15-LO-2). NaBH4 was then added for 5 min and incubations were stopped by the addition of 0.5 mL of cold (−20 °C) MeOH containing 0.01% acetic acid and the internal standards. Samples then were processed for LC-MS/MS analyses as described in methods. Results are the mean (±SEM) of 3 independent experiments.

[10] = target: T5, human recombinant 15-LO-2; assay: Metabolism of substrates by recombinant 15-LO-2, LC-MS/MS; type: biochemical; details: 10 µM 1-LG, 15 min, 37 °C
Experimental: as §4, §5

human neutrophils [11] = assay: Biosynthesis of 15-LO metabolites by human neutrophils
human neutrophils [12] = assay: Inhibition of 13-HODE-G and 13-HODE-EA biosynthesis by 15-LO inhibitors in neutrophils; type: cell-based; details: inhibitor 10 µM 5 min, then 3 µM LEA or 1-LG 5 min
Excerpt: Figure 9 Inhibition of 13-HODE-G and 13-HODE-EA biosynthesis by 15-LO inhibitors in human eosinophils and neutrophils. […] Samples then were processed for LC-MS/MS analyses as described in methods. Results are the mean (±SEM) of 4 independent experiments.

[13] = intracellular calcium elevation

human recombinant CB1 receptor, sequence (P21554 whole entry): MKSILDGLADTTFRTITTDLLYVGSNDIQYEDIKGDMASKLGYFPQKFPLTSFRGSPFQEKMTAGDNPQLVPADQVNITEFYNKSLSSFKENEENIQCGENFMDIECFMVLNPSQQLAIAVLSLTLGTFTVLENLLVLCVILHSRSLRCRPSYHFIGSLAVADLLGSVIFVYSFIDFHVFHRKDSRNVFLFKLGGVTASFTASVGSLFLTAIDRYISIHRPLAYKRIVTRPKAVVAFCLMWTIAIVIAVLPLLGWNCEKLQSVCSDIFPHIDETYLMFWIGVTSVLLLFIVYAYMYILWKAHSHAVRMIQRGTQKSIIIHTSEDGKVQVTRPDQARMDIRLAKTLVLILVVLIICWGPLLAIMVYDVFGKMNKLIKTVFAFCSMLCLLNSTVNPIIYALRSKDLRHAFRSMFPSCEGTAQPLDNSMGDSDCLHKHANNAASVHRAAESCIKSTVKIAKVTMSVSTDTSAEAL

Compound | CB1 Receptor Max Tested (% Displacement) [2] | IC50 [2] [µM] | Ki [2] [µM] | IC50 (human recombinant TRPV1) [µM] | Emax (human recombinant TRPV1; [13]) [%] | Times more metabolite in eosinophils than in neutrophils (human eosinophils [3]) | CB2 Receptor Max Tested (% Displacement) [4] | IC50 [4] [µM] | Ki [4] [µM] | Time of maximal levels of 15-lipoxygenase metabolite (human eosinophils [3]) [min] | further results
CCCCC[C@H](O)/C=C/C=C\CCCCCCCC(=O)OCC(O)CO (stereo partly shown) [13-HODE-G, 13-hydroxy-octodecadienoyl-glycerol] | 10 µM (18.90 ± 6.1) % | > 10 | > 10 | > 50 | < 10 | ~ 60 times | 10 µM (33.58 ± 21.3) % | > 10 | > 10 |  | Level in human epidermis samples [1]: 21.9 ± 6.2 fmol/mg tissue; Stimulation of PPAR-γ transcriptional activity (PPAR-γ): did not stimulate; Stimulation of PPAR-α transcriptional activity (PPAR-α): did not stimulate
CCCCC[C@H](O)/C=C/C=C\CCCCCCCC(=O)NCCO [13-HODE-EA, N-13-hydroxy-octodecadienoyl-ethanolamine] |  |  |  |  |  | ~ 500 times |  |  |  |  | 13-HODE-EA/13-HODE ratio [5]: ~ 3.5; Remaining after 15 min (human eosinophils [6]): 90%; Remaining after 15 min (human neutrophils [7]): 60%; 13-HODE-EA/13-HODE ratio [8]: ~ 3
CCCCC/C=C\C/C=C\CCCCCCCC(=O)OCC(O)CO (stereo not shown) [1-LG, 1-linoleoyl-glycerol] | 10µM (95.8 ± 16.4) % | 2.81 ± 0.85 | 0.31 ± 0.15 | 2.7 ± 0.3 | 46.5 ± 0.9 |  | 10 µM (28.45 ± 9.4) % | > 10 | > 10 | 15 | EC50 (human recombinant TRPV1; intracellular calcium elevation, read-out: Potency (EC50)): 0.23 ± 0.02 µM; Delay before metabolism into 15-lipoxygenase counterpart (human eosinophils [3]): ~ 1 min; Efficacy of the reaction (1-LG to 13-HODE-G) [9]: 23%; Efficacy of the reaction (1-LG to 13-HODE-G) [10]: 40%; Time to biosynthesis of 13-HODE derivatives (human neutrophils [11]; 3 µM substrate): 10 to 30 s
CCCCC/C=C\C/C=C\CCCCCCCC(=O)O [LA, Linoleic acid] |  |  |  |  |  |  |  |  |  | 15 | Time of peak 13-HODE biosynthesis (human neutrophils [11]; 3 µM LA): 10 s; Time to biosynthesis of 13-HODE derivatives (human neutrophils [11]; 3 µM substrate): 10 to 30 s
CC(Cc1ccc(O)c(O)c1)C(C)Cc1ccc(O)c(O)c1 (stereo not shown) [NDGA] |  |  |  |  |  |  |  |  |  |  | Inhibition of biosynthesis of the investigated 15-LO metabolites (human neutrophils [12]): did not inhibit
CCCCC[C@H](O)/C=C/C=C\CCCCCCCC(=O)O [13-HODE, 13(S)-hydroxy-octodecadienoic acid] | 10 µM (7.56 ± 2.3) % | > 10 | > 10 | > 50 | < 10 | ~ 30 times | 10 µM (38.34 ± 5.4) % | > 10 | > 10 |  | Stimulation of PPAR-α transcriptional activity (PPAR-α): robust effect
CCCCC/C=C\C/C=C\CCCCCCCC(=O)NCCO [LEA, N-linoleoyl-ethanolamine] |  |  |  |  |  |  |  |  |  | 15 | Delay before metabolism into 15-lipoxygenase counterpart (human eosinophils [3]): ~ 1 min; Ratio 13-HODE/13-HODE-EA (human neutrophils [11]): 2.67 ± 0.590; Time to biosynthesis of 13-HODE derivatives (human neutrophils [11]): 10 to 30 s
